Results from patent US20220233468A1 (priority 2021, published 2022).
Read-outs that look alike come from different tables or passages of the source.

Legend:
Assay in all cases: microbe, parasite or virus in culture
Assay type in all cases: cell-based
[1] = system: pseudovirions harboring S protein from SARS-CoV-2 Alpha variant (B.1.1.7); conditions: for EC50: Severe acute respiratory syndrome coronavirus 2
[2] = system: pseudovirions harboring S protein from SARS-CoV-2 Beta variant (B.1.351); conditions: for EC50: Severe acute respiratory syndrome coronavirus 2
[3] = system: pseudovirions harboring S protein from SARS-CoV-2 Gamma variant (P.1); conditions: Severe acute respiratory syndrome coronavirus 2
[4] = system: pseudovirions harboring S protein from SARS-CoV-2 Delta variant (B.1.617.2); conditions: for EC50: Severe acute respiratory syndrome coronavirus 2
[5] = read-out: EC50, inhibition of cellular entry of pseudovirions, Gamma variant

Row | Structure (SMILES) | inhibition of cellular entry of pseudovirions with Spike variants (in words), Alpha variant [1] | inhibition of cellular entry of pseudovirions with Spike variants (in words), Beta variant [2] | EC50 [3, 5] | inhibition of cellular entry of pseudovirions with Spike variants (in words), Delta variant [4] | EC50 ([1]; read-out: EC50, inhibition of cellular entry of pseudovirions, Alpha variant) | EC50 ([1]; read-out: EC50, prophylactic inhibition of cellular entry of pseudovirions, Alpha variant) | EC50 ([2]; read-out: EC50, inhibition of cellular entry of pseudovirions, Beta variant) | EC50 ([2]; read-out: EC50, prophylactic inhibition of cellular entry of pseudovirions, Beta variant) | EC50 ([3]; read-out: EC50, prophylactic inhibition of cellular entry of pseudovirions, Gamma variant) | EC50 ([4]; read-out: EC50, inhibition of cellular entry of pseudovirions, Delta variant) | EC50 ([4]; read-out: EC50, prophylactic inhibition of cellular entry of pseudovirions, Delta variant)
1 | COc1ccc(/C=C/C(=O)C(F)(CC2CCC2)C(=O)/C=C/c2ccc(OC)c(OC)c2)cc1OC [Compound A, 4-fluoro-4-cyclobutylmethyl-1,7-bis(3,4-dimethoxyphenyl)hepta-1,6-diene-3,5-dione] | showed inhibition of cellular entry | showed inhibition of cellular entry | ~4 µM | showed inhibition of cellular entry |  |  |  |  |  |  | 
2 | COc1ccc(/C=C/C(=O)C(CC2CCC2)C(=O)/C=C/c2ccc(OC)c(OC)c2)cc1OC [Compound B, 4-(cyclobutylmethyl)-1,7-bis(3,4-dimethoxyphenyl)hepta-1,6-diene-3,5-dione] |  |  | ~4.7 µM |  | ~4.4 µM | ~3.2 µM | ~4.7 µM | ~3.3 µM | ~3.6 µM | ~4.9 µM | ~3.8 µM
